Test results as given in PMC7917936, “Synthesis and Self-Assembly Properties of Bola-Amphiphilic Glycosylated Lipopeptide-Type Supramolecular Hydrogels Showing Colour Changes Along with Gel–Sol Transition” (International Journal of Molecular Sciences, 2021).

Assay: Measurement of the gel–sol transition temperature (Tgel), vial inversion method
Type: physicochemical
Conditions: hydrogel at CGC (0.19 wt%), 200 mM HEPES–NaOH buffer (pH 8.0), oil bath 25 to 85 °C, 1 °C/step, 1 min per step
Method: The gel–sol phase transition behaviour of the βGal–AAC–C6–F3 hydrogel (0.19 wt% (CGC) in 200 mM HEPES–NaOH buffer (pH 8.0)) was determined using the vial inversion method. The inverted gel in the vial was placed in an oil bath, which was heated from 25 °C to 85 °C, at a rate of 1 °C/step. The vial was immersed at each temperature for 1 min to equilibrate. The temperature, at which the sample completely dissolved, was defined as the Tgel value of the gel.

Tgel (gel-to-sol phase transition temperature): 78 °C
Compound: O=C(CCCCCCN1C(=O)C(Cl)=C(Nc2ccc(O[C@@H]3O[C@H](CO)[C@H](O)[C@H](O)[C@H]3O)cc2)C1=O)N[C@@H](Cc1ccccc1)C(=O)N[C@@H](Cc1ccccc1)C(=O)N[C@@H](Cc1ccccc1)C(=O)O [βGal–AAC–C6–F3]
